# Source: patent US20100028312A1, “Stably transformed bone marrow-derived cells and uses thereof” (Caritas St. Elizabeth Medical Center of Boston Inc, priority 2005, published 2010)
# What was measured:
# BM cells = settings: 100 ng intraperitoneal for 3 consecutive days; 2 months after BMT; versus control BMT
# Description: To examine the effect of VEGF on BM cell mobilization, we injected the mice with 100 ng VEGF-C intaperitoneally for 3 days.
# Freshly isolated BM cells or PB cells were subjected to FluoReporter lacZ Flow Cytometry Kit (Molecular Probes, OR) or stained with acetylated low-density lipoprotein (LDL) labeled with 1′-dioctadecyl1-1,3,3,3′-tetramethyl-indocarbocyanine; Di-I (Biomedical Technologies Inc, MA) as described previously [13]. Analysis was performed on a FACStar flow cytometer (Becton Dickinson) and Cell Quest Software counting 10,000 events per sample.
# Accordingly, we treated recipient mice with VEGF protein and analyzed the kinetics of mobilization of BM cells by FACS analysis.
# The means±S.E. from 9 independent experiments are presented. *, p<0.01, **, p<0.05 versus control BMT (FIG. 2A).
# EPC [1] = experiment: RT-PCR assay of AAV-IGF-1 mRNA expression in transduced EPC, with or without genistein; type: cell-based, rats
# Description: (§1) EPC Culture and Expansion. Peripheral blood (about 1 ml) was obtained from the hearts of rats and mononuclear cells were isolated by density gradient centrifugation and cultured for 5 days. EPC were expanded ex vivo as described above.
# (§2) Transduction of EPC. EPC cultures were infected with type 2 AAV-lacZ (also referred to herein as AAV-lacZ(+)) (control) vectors or AAV-IGF-1 vectors, prepared as described above, using approximately 3000 particles/cell. Some cultures were treated for about 1 hour with genistein, a specific inhibitor of cellular protein tyrosine kinases, (2-40 μM, preferably about 20 μM). Control vectors used in the genistein experiments also included AAV vector without lacZ, designated AAVlacZ(−).
# One week after infection, the cells were analyzed for β-galactosidase activity. AAV-IGF-1 mRNA expression in EPCs was determined by RT-PCR assay using primers specific for human IGF-1 sequences. The primer sequences used in these studies are as shown: […]
# EPC [2] = experiment: β-galactosidase activity in EPC transduced with type 2 AAV, with or without genistein; type: cell-based, rats
# Description: as §1, §2
# AAV-IGF-1 mRNA expression in EPCs was determined by RT-PCR assay using primers specific for human IGF-1 sequences. The primer sequences used in these studies are as shown:
# To determine whether efficiency of rAAV transduction of cultured EPC can be enhanced by inhibiting protein tyrosine kinases in these cells, some EPC cultures were pretreated with genestein prior to infection with rAAV, as described above. Referring to FIG. 5, in cultures infected with AAVlacZ(−) control vector, β-gal activity was negligible. In cultures infected with AAVlacZ(+) without or with pretreatment with 20 μM genistein, β-gal activity was 3.35 vs. 12.09, respectively. […]
Compound,β-gal expression in both PB and BM of recipient mice (BM cells),"AAV-mediated IGF-1 expression (mRNA, RT-PCR) (EPC [1]; AAV-IGF-1 transduced EPC following treatment with genistein)",increase of IGF-1 expression from AAV by genistein (EPC [1]; genistein versus no genistein),"increase of lacZ activity by genistein (EPC [2]; 20 μM genistein versus no genistein, AAVlacZ(+))","β-gal activity (EPC [2]; 14 days after transduction, AAVlacZ(+)-infected EPC pretreated with 20 μM genistein)"
VEGF,significantly increased,,,,
O=c1c(-c2ccc(O)cc2)coc2cc(O)cc(O)c12 [genistein],,206.1 units,about seven-fold,approximately four-fold,12.09
